In EP0009702A1, “A phenylalkylaminoethylsalicylamide, its preparation and pharmaceutical compositions containing it” (SCHERING CORPORATION, priority 1978, dated 1980):

What was measured:
[1] = toxicity at therapeutic doses; assay type: in vivo
[2] = direct peripheral vasodilation activity; assay type: in vivo; details: compared with labetalol
[3] = antihypertensive activity, laboratory tests, oral dosing; assay type: in vivo; details: result in words
[4] = tested on: β-adrenergic receptors; assay: β-adrenergic blocking potency, animal tests; assay type: in vivo; details: for β-blocking potency: relative to labetalol (assigned value 1.0), animal tests
From the text: (§1) The a- and β-blocking activities discussed earlier in this specification can be determined by known methods, e.g. by those of Farmer et.al., Brit. J. Pharm., 45, 660 (1972); Robson, J. Pharm. Exp. Therap., 175, 157 (1970), and Levy, Arch. Int. Pharmacodyn. Ther., 204,. 143 (197-3).

[5] = tested on: a-adrenergic receptors; assay: α-adrenergic blocking potency, animal tests; assay type: in vivo; details: relative to labetalol (assigned value 1.0)
From the text: as §1

[6] = tested on: β-adrenergic receptors; details: as disclosed in British patent specifications 1,541,932 and 1,541,933; cited from earlier work

ratio of the β-adrenergic blocking potency to the a-adrenergic blocking potency ([4]; compared with labetalol)	a-blocking potency [5]	SMILES	toxicity [1]	direct peripheral vasodilation activity [2]	antihypertensive activity [3]	β-blocking potency [4]	β-adrenergic blocking activity [6]
greatly and unexpectedly increased	about one third	C[C@H](CCc1ccccc1)NC[C@H](O)c1ccc(O)c(C(N)=O)c1 (single isomer, unassigned; isomer 5) [(R,R) optical isomer]	substantially non-toxic	greater direct peripheral vasodilation activity than labetalol	potent antihypertensive activity	about twelve times	
		CC(CCc1ccccc1)NCC(O)c1ccc(O)c(C(N)=O)c1 (racemic) [diastereoisomer A]					strongly reduced
	half	C[C@H](CCc1ccccc1)NC[C@H](O)c1ccc(O)c(C(N)=O)c1 (racemic) [diastereoisomer B, reference compound]				not significantly different from that of labetalol	
